The structures appear in SMILES notation.

The nature of this data set: gradient 5% acetonitrile 3 min, to 50% in 2 min, to 85% in 15 min, held 3 min, 100 µL/min. The following applies: column: Zorbax Extend-C18 2.1 x 50 mm; eluents: water / acetonitrile, 0.1% formic acid. Summed up:
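Retention times of pure standards were taken from adduct peaks that were selected by computer and manually inspected. Over 3 months, mixtures of ~100 molecules were run by HPLC–quadrupole time-of-flight mass spectrometry in positive and negative ionization mode. The Zorbax Extend-C18 column (2.1 × 50 mm, 1.8 μm) ran at 100 μL/min in water and acetonitrile, each containing 0.1% formic acid, with 40 μL dead volume and 900 μL dwell volume.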
Take `CC(=O)N1c2ccc(S(=O)(=O)N3CCCCC3)cc2CC1C(=O)NCCC(C)C` (centres undefined): the RP-LC retention time came to 822 s.

For the compound `COc1ccc(NC(=O)c2cc3c(s2)CN(C2CC2)C3)c(C)c1`, the RP-LC retention time amounted to 783 s.

As to `Cc1cc(N2CCOCC2)n2nc(CN3CCN(c4ccccc4C)CC3)nc2n1`, the RP-LC retention time was determined as 636 s.

`CC1=C(c2ccccc2)S(=O)(=O)N=C1N1CCCN(C(=O)c2sccc2C)CC1` displayed an RP-LC retention time of 721 s.

`O=C(Nc1cccc(-c2cn3cccnc3n2)c1)c1ccc(Br)cc1`: the RP-LC retention time was 734 s.

Take `CN1CCN(c2nc3c(c(Nc4ccccc4)n2)C(=O)CC(C)(C)C3)CC1`: the RP-LC retention time was found to be 713 s.

`O=C(NCC1CCN(S(=O)(=O)C2CC2)CC1)C1(c2ccc(F)cc2)CC1`: the RP-LC retention time is 595 s.

As for `Cc1ccc(CNC(=O)C2(C)CCCN(C(=O)Nc3cc(Cl)ccc3C)C2)cc1` (centres undefined), the RP-LC retention time came out at 1080 s.

The compound `O=C(c1ccccc1F)N1CCCn2cc(-c3ccccc3F)nc21` came in with an RP-LC retention time of 792 s.

Turning to `O=C(c1cccc(OC(F)(F)F)c1)N1C[C@@H]2C[C@H]1C[C@@H]2NS(=O)(=O)c1ccccc1`, the RP-LC retention time stood at 887 s.

`Cc1scc2nc(C(=O)NCc3ccc(F)cc3)nc(N3CCCC3)c12` gave an RP-LC retention time of 561 s.

Regarding `Cc1ccc(N2CC(c3nc(-c4ccccc4F)no3)CC2=O)cc1C` (centres undefined), the RP-LC retention time worked out at 1020 s.

`COc1ccc(NC(=O)Cn2c(=O)c(CCC(=O)NCC(C)C)nc3ccccc32)cc1OC` displayed an RP-LC retention time of 756 s.

The compound `Cc1cccc(C)c1NC(=O)C1CCCN(c2nc3ccccc3nc2C(F)(F)F)C1` (centres undefined) gave an RP-LC retention time of 1170 s.

Compound `CCn1cnnc1C1CCCN(C(=O)CCc2c[nH]c3ccccc23)C1` (centres undefined) gave an RP-LC retention time of 612 s.

Turning to `O=C(COc1ccccc1F)N1CC(c2nc3ccccc3[nH]2)C1`, the RP-LC retention time came out at 578 s.

The compound `CCN1C=C(C(=O)OCc2ccc(Cl)cc2)C(C)=NS1(=O)=O` showed an RP-LC retention time of 1060 s.

Turning to `CCn1cc(-c2nc(C(=O)Nc3ccc(C)cc3)cs2)c2cccnc21`, the RP-LC retention time is 1160 s.

On to `Cc1ccc(NC(=O)c2ccccc2[N+](=O)[O-])c(C(=O)c2ccccc2)c1`, for which the RP-LC retention time was 955 s.

`CC(C)Cn1cc(S(=O)(=O)Nc2cc(F)ccc2Cl)c2cccnc21` showed an RP-LC retention time of 1020 s.

`Cc1cccc(CNC(=O)C2CCN(S(=O)(=O)c3ccc4c(c3)sc(=O)n4C(C)C)CC2)c1` came in with an RP-LC retention time of 985 s.

`CCN(CC)C(=O)c1c(C)sc2ccn(C)c(=O)c12`: the RP-LC retention time came out at 639 s.

In turn, `Cc1ccccc1OCC(=O)Nc1nc(-c2ccccc2Cl)cs1` returned an RP-LC retention time of 1210 s.

In turn, `Cn1c(CC2CCN(C(=O)c3ccccc3Cl)C2)nc2cccnc21` (centres undefined) gave an RP-LC retention time of 572 s.

As for `COc1ccc(-c2cc(C(=O)N3CCC(NC(=O)C4CCCC4)CC3)[nH]n2)cc1`, the RP-LC retention time was found to be 713 s.

Regarding `CCOC(=O)N1CCN(S(=O)(=O)CCNC(=O)c2ccccc2)CC1`, the RP-LC retention time was determined as 669 s.

As to `Cc1cccc(C)c1Nc1c(-c2ccccc2F)nc2ccc(Br)cn12`, the RP-LC retention time was determined as 893 s.

As to `Cc1nc(-c2cccc(NC(=O)c3cccc(F)c3)c2)cs1`, the RP-LC retention time stood at 856 s.

For `CCOc1ccc(-n2ccn3c(CCCC(=O)NC4CCCCCC4)nnc3c2=O)cc1`, the RP-LC retention time stood at 783 s.

With `Cc1cccc(NC(=O)N2CCCC2c2nc(-c3cccc(C)c3)no2)c1` (centres undefined), the RP-LC retention time stood at 598 s.

Turning to `Cn1cnc(S(=O)(=O)NCCc2noc(-c3ccncc3)n2)c1`, the RP-LC retention time is 596 s.

The compound `COc1ccc(CN2CCc3nc(N4CCN(c5ncccn5)CC4)ncc3C2)c(OC)c1` had an RP-LC retention time of 664 s.

Take `Cc1ccc2cc(CCC(=O)NCCCN3CCCCC3)c(=O)[nH]c2c1`: the RP-LC retention time came out at 584 s.

`Cc1ccc(N2CCN(c3nccn4c(=O)n(CC(=O)Nc5ccc(F)c(Cl)c5)nc34)CC2)cc1` had an RP-LC retention time of 1040 s.

On to `COCCNC(=O)N1c2ccccc2NC2=C(C(=O)CC(C)(C)C2)C1c1ccc(F)cc1` (centres undefined), for which the RP-LC retention time was determined as 749 s.

The compound `Cc1c(Cl)cccc1S(=O)(=O)N1CCc2c(c(-c3nnc(-c4ccccc4)o3)nn2C)C1` registered an RP-LC retention time of 1060 s.

`COc1ccc(NC(=O)N2C[C@@H](F)C[C@H]2C(=O)N2CCCCC2)cc1OC` returned an RP-LC retention time of 643 s.

Compound `CCOc1ccccc1NC(=O)N1CC(n2cnnc2-c2ccccc2)C1` returned an RP-LC retention time of 722 s.

On to `CC(C)Cn1nc2n(c1=O)CCN(S(=O)(=O)Cc1ccccc1)CC2`, for which the RP-LC retention time was found to be 777 s.

`Cc1sc(NC(=O)CCn2c(=O)sc3ccccc32)nc1-c1ccc(Cl)cc1` displayed an RP-LC retention time of 1110 s.

As for `Cc1nn(-c2ccc(F)cc2)c2nc(N3CCCC(C(=O)NCc4ccccc4Cl)C3)sc12` (centres undefined), the RP-LC retention time came out at 1190 s.

In turn, `Cc1cc2c(c(=O)n(-c3ccccc3)c(=O)n2CC(=O)Nc2ccc3c(c2)OCO3)n1C` gave an RP-LC retention time of 760 s.

In turn, `CNC(=O)c1cnn(-c2nc(N)c3ncn([C@@H]4O[C@H](CO)C(O)C4O)c3n2)c1` (some centres undefined) displayed an RP-LC retention time of 586 s.

The compound `COc1ccccc1-c1noc(Cn2cnc3c(cnn3-c3ccc(C)cc3)c2=O)n1` returned an RP-LC retention time of 1100 s.

Regarding `CN1CCCc2cc(C(CNC(=O)C(=O)NC3CCCCC3)N(C)C)ccc21` (centres undefined), the RP-LC retention time was found to be 598 s.

In the case of `CCOCCCNC(=O)C1CCN(C2=NS(=O)(=O)C(c3ccc(CC)cc3)=C2C)CC1`, the RP-LC retention time was 810 s.

`COc1ccc(C(=O)NC2CCN(c3cc(C)cc(C)c3)C2=O)cc1F` (centres undefined): the RP-LC retention time worked out at 901 s.

Compound `Cc1ccsc1C(=O)N1[C@H]2CC[C@@H]1c1cnc(-c3ccccc3)nc1C2` came in with an RP-LC retention time of 982 s.

`Cc1ccc(NC(=O)NCc2ccnc(N3CCSCC3)c2)c(C)c1` displayed an RP-LC retention time of 631 s.

With `Cc1ccnc(Nc2nc(-c3cc(C)c(C)cc3C)cs2)c1`, the RP-LC retention time turned out to be 953 s.

Consider `CNC(=O)NC1CCN(C(=O)c2cccc(F)c2)C1` (centres undefined), for which the RP-LC retention time was 628 s.

`CC(C)Oc1ccc(-c2noc(CN3N=NC4C(=O)N(c5ccc(F)c(F)c5)C(=O)C43)n2)cc1` (centres undefined) registered an RP-LC retention time of 1110 s.

Take `Cc1ccc(CNC(=O)c2cc3c(s2)CCN(C(=O)c2ccc(F)cc2)C3)o1`: the RP-LC retention time is 847 s.

As to `CC(C)Oc1ccc(-c2noc(Cn3c(=O)n(-c4cccc(F)c4)c(=O)c4sccc43)n2)cc1`, the RP-LC retention time came to 1090 s.

Regarding `Cn1cccc1CN1CCCC(COc2ccccc2C(=O)N2CCCC2)C1` (centres undefined), the RP-LC retention time was found to be 644 s.

Compound `CC(NC(=O)c1ccsc1)C(=O)Nc1nc2ccccc2[nH]1` (centres undefined) displayed an RP-LC retention time of 609 s.

Compound `CCCN1CCCCc2cc(C(=O)N(CC)C(C)C)sc21` yielded an RP-LC retention time of 1240 s.

For `Cc1cc2c(c(=O)n(-c3ccccc3)c(=O)n2CC(=O)Nc2ccc(C(F)(F)F)cc2)n1C`, the RP-LC retention time was 927 s.

With `CC(C)Cn1c(=O)c(N2CCN(C(=O)NCCc3ccccc3)CC2)nc2ccncc21`, the RP-LC retention time came to 668 s.

The values are drawn from the METLIN SMRT retention time set (Domingo-Almenara et al. 2019).
